Experimental data from patent US20240206463A1, “AGROCHEMICAL COMPOSITION” (NOURYON CHEMICALS INTERNATIONAL B.V., priority 2021, published 2024).
Where two headings read alike, the source gives them in different places.

Experiments:
[1] = Diluents lowering the melting point of pelargonic acid: visual appearance (crystal/clear) of pelargonic acid/diluent blends at low temperature
[2] = Wetting/spreading of a drop on a hydrophobic polystyrene dish; format: physicochemical; details: in water (0.5-3.7%)
From the text: It was unexpectedly discovered that there is a synergy in wetting/spreading between C9 acid and phosphate ester exemplified by PE2 (C1216-30 phosphate ester). […] That is, a drop of the solution balls up with a large contact angle on the dish.

[3] = pelargonic acid 30 wt % + diluent 70 wt %
[4] = pelargonic acid 50 wt % + diluent 50 wt %
[5] = pelargonic acid 65 wt % + diluent 35 wt %
[6] = pelargonic acid 70 wt % + diluent 30 wt %
[7] = pelargonic acid 75 wt % + diluent 25 wt %
[8] = pelargonic acid 60 wt % + diluent 40 wt %
[9] = pelargonic acid 80 wt % + diluent 20 wt %

appearance at 0° C. [1, 3]	appearance at −20° C. [1, 3]	appearance at 0° C. [1, 4]	appearance at −20° C. [1, 4]	appearance at 0° C. [1, 5]	appearance at −20° C. [1, 5]	appearance at 0° C. [1, 6]	appearance at −20° C. [1, 6]	appearance at 0° C. [1, 7]	appearance at −20° C. [1, 7]	diluent amount required to lower the melting point of pelargonic acid to 0° C. (or lower) [1] [%]	appearance at 0° C. [1, 8]	appearance at −20° C. [1, 8]	appearance at 0° C. [1, 9]	appearance at −20° C. [1, 9]	ability to wet a hydrophobic polystyrene dish [2]	Compound	appearance at 0° C. [1]	appearance at −20° C. [1]
		Clear	Crystal	Clear	Crystal	Crystal	Crystal	Crystal	Crystal	35						COC(=O)c1ccccc1O [Methyl salicylate]		
Clear	Clear	Clear	Crystal	Clear	Crystal	Clear	Crystal	Crystal	Crystal							C=C(C)[C@H]1CC=C(C)CC1 [d-limonene]		
						Clear	Crystal			30						CCCCC(=O)O [Valeric C5 acid, valeric acid]		
								Clear	Crystal	25						CCCCCCC(=O)O [Heptanoic acid]		
Clear	Clear	Clear	Crystal			Clear	Crystal			30	Clear	Crystal	Crystal	Crystal		CCCCC(CC)CO (stereo not drawn) [2-EH alcohol, 2-ethylhexanol]		
																COC(=O)c1ccccc1 [Methyl benzoate]	Clear	Crystal
Clear	Clear	Clear	Crystal			Clear	Crystal			30	Clear	Crystal	Crystal	Crystal		CCCCC(CC)C(=O)O (stereo not drawn) [2-EH acid, 2-ethyhexanoic acid]		
															not able to wet	CCCCCCCCC(=O)O [C9 acid, pelargonic acid]		
Clear	Crystal	Clear	Crystal	Crystal	Crystal	Crystal	Crystal	Crystal	Crystal	30						CCCCCCCCOC(=O)C(C)O (stereo not drawn) [Octyl lactate]		
																CCOP(=O)(OCC)OCC [triethylphosphate]	Clear	

Compound	appearance at 0° C. [1, 3]	appearance at −20° C. [1, 3]	appearance at 0° C. [1, 4]	appearance at −20° C. [1, 4]	appearance at 0° C. [1, 5]	appearance at −20° C. [1, 5]	appearance at 0° C. [1, 6]	appearance at −20° C. [1, 6]	appearance at 0° C. [1, 7]	appearance at −20° C. [1, 7]	diluent amount required to lower the melting point of pelargonic acid to 0° C. (or lower) [1] [%]	appearance at 0° C. [1, 8]	appearance at −20° C. [1, 8]	appearance at 0° C. [1, 9]	appearance at −20° C. [1, 9]	ability to wet a hydrophobic polystyrene dish [2]	appearance at 0° C. [1]	appearance at −20° C. [1]
CCCCOC(C)=O [Butyl Acetate]	Clear	Clear	Clear	Crystal	Clear	Crystal	Clear	Crystal	Clear	Crystal								
